Assay results: a compilation of properties of binary mixtures (doi:10.1016/j.molliq.2020.114495)

Assay: xn = mol fraction of the nth substance listed
Details: 100 kPa

OCCO + O=S(=O)([N-]S(=O)(=O)C(F)(F)F)C(F)(F)F.[Li+]
x2 = 0
Details	viscosity [mPa·s]
303 K	13.53
318.1 K	9.59
333 K	7.47

O=S(=O)([N-]S(=O)(=O)C(F)(F)F)C(F)(F)F.[Li+] + OCCO
Details	electrical conductivity, 303 K [S/m]	electrical conductivity, 318.1 K [S/m]	electrical conductivity, 333 K [S/m]	viscosity, 303 K [mPa·s]	viscosity, 318.1 K [mPa·s]	viscosity, 333 K [mPa·s]
x1 = 0.143	0.129	0.296	0.516	18.14	12.79	8.55
x1 = 0.167	0.275	0.604	0.928	19.25	13.57	8.71
x1 = 0.2	0.305	0.738	1.2	21.4	14.53	10.21
x1 = 0.25	0.291	0.623	1.07	23.79	16.35	10.61
x1 = 0.333	0.281	0.559	0.88	30.24	18.69	11.02
x1 = 0.5	0.275	0.534	–	58.8	35.26	–
